Test results published in a melting point compilation (Tetko et al.; mined from patent text by program, amines drawn as free bases though some values may be those of a salt).

SMILES | melting point [°C]
CCCNC(=O)Nc1ccccc1C(=O)OC | 102
OCCN(CCO)c1cc(-c2ccccn2)nc(-c2ccccn2)c1 | 171 to 172
CCOC(=O)c1[nH]c(C)c(C)c1OCCCCCl | 58 to 60
CCCCCCCCCCCCc1nnc(C(C(=O)Nc2c(OC)cc(OC)cc2OC)c2ccccc2)o1 (configuration not stated) | 120 to 121
CCNc1nc(C)c(-c2ccnc(Nc3ccc(N4CCCCC4)c(C)c3)n2)s1 | 213 to 214
CCCSc1csc(C(=O)OC)c1S(=O)(=O)NC(C)(C)C | 93 to 98
Cc1nn(C)c2c1N(C(=O)CN(C)C)c1ccccc1NC2=O | 178 to 179
COCCOc1cc2ncnc(NC3=CC(=O)C(N4CCCCC4)=CC3=O)c2cc1OC | 197 to 200
COC(=O)C(Oc1ccc(C(F)(F)F)cc1)c1ccc(OCCOc2ccc(Cl)cc2)cc1 (configuration not stated) | 95 to 97
Cc1cc(Cn2nc(C(F)(F)C(F)(F)F)nc2C(F)(F)F)ccc1NC(=O)c1cccc(Br)c1C(=O)N[C@@H](C)CS(C)(=O)=O | 104 to 108
CSC(Nc1cccnc1)=C(C#N)S(=O)(=O)c1ccc(Cl)cc1 | 181 to 182
CCOC(=O)[C@@H](NC(=O)c1cc(-c2ncc(C(F)(F)F)cc2Cl)ccc1Cl)C(C)C | 90 to 92
CSc1cc2cc(C)ccc2cc1C=O | 117 to 118
Cc1cc(F)c([N+](=O)[O-])cc1N | 178
O=C(O)CCc1ccnc(-c2nc(=O)c3ccc(Cl)cc3s2)c1 | 263 to 264
CCCCC(C(O)c1ccc(Cl)cc1)n1cncn1 (configuration not stated) | 93 to 94
CC#CCOc1ccc(S(=O)(=O)NC2(C(=O)NO)CCCCC2)cc1 | 82 to 84
C=C(C)C(=O)OCCc1ccc(N(C)C)cc1 | 42 to 43
COc1ccc(CC(C)NCC(O)c2ccccc2OC)cc1OC (configuration not stated) | 125 to 126
CCNCCCOc1ccc(-c2ccc(C(=O)O)cc2)cc1-c1ccc2c(c1)C(C)(C)CCC2(C)C | 233
CCCCCCCCCCCCCCCCCC(=O)NCC(COCCCCCCCCCCCCCCCC)COCc1ccccc1 (configuration not stated) | 56 to 57
CC(C)(C)OC(=O)N1CCn2c(C#N)c(-c3cccc(F)c3)c(C(=O)O)c2C1 | > 210
Cc1ccc2[nH]cc(C3=C(Br)C(=O)N(C)C3=O)c2c1 | 158 to 159
CC1(C)N=C(Oc2ccnc(O)c2)c2cc(C#N)ccc2O1 | 275 to 278
CC(=O)NCC1CN(c2ccc(N3CCN(c4nnc(C(N)=O)s4)C(F)C3)cc2)C(=O)O1 (configuration not stated) | 230 to 232
CC(C)(C)c1cc(CCc2ccccc2NC(=O)NC2CCN(Cc3ccc(C#N)cc3)CC2)cc(C(C)(C)C)c1O | 197 to 198
O=C(CCCCC1CCSS1)N1CCc2ccccc21 (configuration not stated) | 65 to 66

SMILES | melting point [°C]
CCN(CC)CCNc1ccc(C2C(C(=O)OC)=C(C)NC(C)=C2C(=O)OC)cc1[N+](=O)[O-] | 161
Cn1c(SCCO)nnc1SCCO | 87 to 88
CC(C)(C)OC(=O)Nc1ccc(I)cc1[N+](=O)[O-] | 92 to 94
Cn1ncc2c3[nH]ncc3ccc21 | 180 to 184
Cc1cccc(C)c1NC(=O)C(C)N1CSCC1=O (configuration not stated) | 153 to 154
N#CCCNC(=O)c1cccc(-c2cccc3cc(Cc4cccc(C(F)(F)F)c4)sc23)c1 | 95 to 98
COc1ccc(OC)c2c1C(=O)c1c(C)oc(C)c1C2=O | 227 to 228
CC(C)c1nsc(N=C(F)N(C)C)c1C#N | 100 to 102
O=C(O)c1ccc(C(c2ccccc2)(c2ccc(C(=O)O)c(C(=O)O)c2)C(F)(F)F)cc1C(=O)O | 210 to 213
CCOC(=O)N(C)S(=O)(=O)c1cc2c(c(Cl)c1Cl)OC(C(=O)O)C2 (configuration not stated) | 199 to 201
CCc1sc(NC(=O)C2=C(O)c3ccc4ccccc4c3S(=O)(=O)N2C)nc1C | 253 to 255
COC(=O)c1nc(-c2ccc(C(F)(F)F)cc2)nc(N)c1Cl | 204 to 205
Cc1nn(C)c(C(=O)C(C#N)c2ccc(C(C)(C)C)cc2)c1C (configuration not stated) | 178
N#Cc1cc([N+](=O)[O-])ccc1OC12CC3CC(CC(C3)C1)C2 | 187 to 189
OCCCCOCCCCOCCCCOCCCCOCCCCO | 34.5 to 36.5
O=[N+]([O-])c1ccc(CP2(=O)OCCCO2)cc1 | 144 to 145
O=C(O)c1ccc(OCCCOCCCCCCBr)cc1 | 72 to 75
O=C(O)/C=C(\c1cc(F)cc(F)c1)C(F)(F)F | 129 to 130
C#CCOc1cc(-c2ncc(C(F)(F)F)c(C)c2Cl)c(F)cc1Cl | 95 to 98
COC(=O)c1cc(C(=O)N2CCC(C(N)=O)CC2)c2cc(Cc3ccc(F)cc3)cnc2c1O | 235 to 238
CCCCOc1cc(Cl)c(OCCCC)cc1N | 43 to 44
COC(=O)CCCc1cc2cc(Cl)ccc2n1S(=O)(=O)c1ccc(N)c(N)c1 | 158 to 160
CC(=O)C(=Cc1ccc(C#N)cc1)C(=O)C1CC1 | 83 to 85
CC1=c2cc(Br)ccc2=NC1=O | 119 to 120
CCOc1ccccc1-c1nc2c(C)nn(C)c2c(=O)[nH]1 | 201 to 204
COc1cnc(NS(=O)(=O)c2cccc(Cl)c2Cl)c(OC)n1 | 138 to 139
FC(F)(F)c1cccc(NC2CCCN(c3ccc(Cl)nn3)C2)c1 (configuration not stated) | 92.6

Next, values leading:

melting point [°C] | SMILES
171 to 172 | CCCCN(CCCC)c1ccc(C(=O)c2ccccc2C(=O)O)cc1
96 | O=S(=O)(c1ccccc1)n1ccc2c(OCC3CO3)cccc21 (configuration not stated)
160 to 163 | Cc1ccccc1-c1cc(Cl)cc2c1OC(CN)C2 (configuration not stated)
144 to 145 | CC1Cc2cc(N3C[C@H](CO)OC3=O)ccc2N1C(=O)OCc1ccccc1 (some centres not stated)
218 to 219 | O=C(O)C1=Cc2cc(C#Cc3ccccc3)ccc2NC1C(F)(F)F (configuration not stated)
145 | CC=C1CC1C(=C1C(=O)OC(=O)C1c1cc(C)n(-c2ccccc2)c1C)C1CC1 (configuration not stated)
98 to 105 | COc1ccccc1OCC(O)CNCCOc1ccc(C(N)=O)cn1 (configuration not stated)
241 to 242 | COc1cc(C(=O)O)ccc1Cn1cnc2ccc(NC(=O)OC3CCCC3)cc21
197 to 198 | Oc1cc(-c2ccc(F)cc2)nc(-c2ccccn2)n1
113 to 114 | COC(=O)Cc1ccccc1N(Cc1ccc(C)cc1)c1c(Cl)cccc1Cl
64 to 66 | COCc1nc(C)c2c(n1)N(Cc1ccc(Br)cc1)C(=O)CC2
164 to 165 | CC(=O)N1CCN(C)C1C(c1ccccc1)c1ccccc1 (configuration not stated)
194 to 195 | CC1(C)OC(c2ccc(S(C)(=O)=O)cc2)=C(c2cccc3ccccc23)C1=O
148 to 150 | COc1ccc(OCC(O)CN2CCC(N3CCNC3=O)CC2)cc1 (configuration not stated)
94.5 to 97 | CC(C(=O)O)c1ccc(-c2ccccc2F)cc1 (configuration not stated)
174 to 176 | COCc1ccoc1-c1cc(-n2c(N)nc3ccccc32)ccc1C
286 to 288 | O=C1NCc2nc3ccc(Cl)cc3c(=O)n2-c2ccccc21
144 to 145 | COc1ccc(C[C@H](C[C@H](O)[C@H](Cc2ccccc2)NC(=O)OC(C)(C)C)C(=O)O)c(OC)c1
117 to 119 | CN(C)CCC(Oc1ccc(C(F)(F)F)cc1)c1ccccc1 (configuration not stated)
87 to 88 | O=C(NCCCCSc1ccncc1)c1ccccc1CO
145 to 147 | NC[C@H]1C=Cc2cc(F)cc(-c3ccccc3Cl)c2O1
190 to 192 | CC1CCN2C=CC3=C(N=C12)C(c1c[nH]c2ccccc12)CC=C3 (configuration not stated)
115 to 118 | COc1ccc(-c2nc(SCC(C)=O)[nH]c2-c2ccc(OC)cc2)cc1
> 250 | NCC1Cc2cc(-c3cccc(C(F)(F)F)c3)cc(F)c2O1 (configuration not stated)

melting point [°C] | SMILES
121 to 124 | N#CC(c1ccccc1Cl)N1CCc2sccc2C1 (configuration not stated)
107 to 111 | CC1Cc2cc(NC(=O)OCc3ccccc3)ccc2N1C(=O)OCc1ccccc1 (configuration not stated)
> 250 | CS(=O)(=O)Nc1cc2occ(C(=O)O)c(=O)c2cc1Oc1ccccc1
110 to 111 | O=C1OC(Cc2ccc3c(c2)OCO3)CN1c1ccccc1 (configuration not stated)
150 | O[C@H]1COC(c2ccccc2)=N[C@@H]1c1ccccc1 (racemic)
221 to 223 | COc1ccc(-c2cc3cc(F)c(F)cc3[nH]2)cc1NC(=S)Nc1cccc(C(=O)O)c1
169 to 171 | O=C1c2ccccc2C(=O)N1CCCCc1nc[nH]n1
90 to 91 | CCOC(=O)CCc1cccc(OCc2ccc(OCc3nc(-c4ccccc4)oc3C)cc2)c1
126 to 128 | COc1cc2c(c3c1OC(C)(C)C3)C(c1cccc(-c3ccco3)c1)=NC(C)(C)C2
178 to 179 | Cc1ccccc1NC(=O)Nc1ccc(CC(=O)N[C@@H](CC(C)C)C(=O)O)cc1
95 to 97 | COC(=O)c1cc(COc2ccccc2)cc(C(=O)OC)c1
105 to 107 | NC1CCc2ccccc2N(CC(=O)OCc2ccccc2)C1=O (configuration not stated)
70 | C#CCOC(=O)C1=C(C)NN=C(CC)C1c1cccc([N+](=O)[O-])c1 (configuration not stated)
358 | O=c1[nH]c2cc(Cl)ccc2c(O)c1-c1cccc(Br)c1
161 to 162 | COc1cccc(C2C(=O)CCc3ccccc32)c1 (configuration not stated)
190 | Cc1cc2nc3ccccc3sc-2c(Br)c1=O
181 to 182 | CC1(C)OC(=O)Nc2ccc(-c3ccccc3Cl)cc21
289 to 292 | COc1ccc(-c2nc3c(C(N)=O)cccc3n2C)cc1
212 | Cc1c(C(=O)c2ccccc2)ccc(O)c1CC(=O)O
70 to 72 | COc1ccc(Nc2nc(C)ccc2S(=O)(=O)c2ccc(OCc3ccccc3OC)cc2)c(C)c1
128 to 131 | COC(=O)C(=C(CBr)CBr)N1CC(N2C(=O)c3ccccc3C2=O)C1=O (configuration not stated)
163 to 165 | O=c1c2cc(F)ccc2nc(NCc2ccccc2F)n1-c1ccccc1Cl
75 to 77 | CCOC(=O)C(=CNc1ccnn1Cc1ccco1)C(=O)c1ccccc1
132 | CCCOc1ccc(-c2ccc(Cl)nn2)cc1OC
